One may read the IC50 as the concentration that inhibits the measured activity by half. The bioavailability is the share of a dose that reaches the circulation, judged against a reference dose that is usually intravenous. A higher bioavailability goes with good availability. As a reminder, the clearance is the volume of plasma or blood freed of the substance per unit of time. Higher therefore signals a high capacity for elimination.

Structures are written as SMILES. Activity calls are given as the source filed them. No cut-off for these calls is given here. Where only a bound is given, the exact number is not on record here.

The target of one series is T1, Acyl-CoA desaturase 1 (Mus musculus, UniProt P13516).
T1 sequence (P13516 whole entry): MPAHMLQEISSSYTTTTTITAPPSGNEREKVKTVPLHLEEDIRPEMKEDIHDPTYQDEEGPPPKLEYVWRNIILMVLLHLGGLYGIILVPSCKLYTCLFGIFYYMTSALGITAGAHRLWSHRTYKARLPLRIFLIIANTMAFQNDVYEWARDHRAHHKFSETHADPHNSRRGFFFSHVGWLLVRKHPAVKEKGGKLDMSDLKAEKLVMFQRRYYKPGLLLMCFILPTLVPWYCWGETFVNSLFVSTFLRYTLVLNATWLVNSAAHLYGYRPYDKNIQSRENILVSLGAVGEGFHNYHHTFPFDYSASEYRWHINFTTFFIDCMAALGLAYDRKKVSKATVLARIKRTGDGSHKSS
Put plainly: Inhibition of mouse SCD1.

Series [1] can be described thus: Inhibition of human recombinant SCD1 expressed in baculovirus/insect cell system.
Series [2] concerns Mus musculus. Briefly: Reduction in desaturation index in plasma of ob/ob mouse assessed as ratio of C18:0/C18:1n9 at 10 mg/kg bid. Further details: dose 10 mg/kg. In kind it is functional, organism-based.
Series [3] concerns Mus musculus. Briefly: Reduction in desaturation index in liver of ob/ob mouse assessed as ratio of C16:0/C16:1n7 at 10 mg/kg bid. The format is functional, organism-based. Details: dose 10 mg/kg.
For series [4], the system named is Mus musculus. Put plainly: Reduction in desaturation index in liver of ob/ob mouse assessed as ratio of C18:0/C18:1n9 at 10 mg/kg bid. In kind it is functional, organism-based. Further details: dose 10 mg/kg.
Series [5] relates to Mus musculus. Briefly: Reduction in desaturation index in plasma of ob/ob mouse assessed as ratio of C16:0/C16:1n7 at 10 mg/kg bid. The format is functional, organism-based. Details: dose 10 mg/kg.
A short description of series [6]: Oral bioavailability in mouse. In kind it is ADME, organism-based. Conditions: in vivo.
The species entered for series [7] is Mus musculus. Put plainly: Reduction in triglyceride desaturation index in ob/ob mouse. In kind it is functional, organism-based.
Series [8] is described as follows: Inhibition of cytochrome b5 reductase at >10 uM.
Series [9] can be described thus: Volume of distribution at steady state in mouse. The format is ADME, organism-based. Conditions: in vivo, read-out: Vdss.
The nature of series [10]: Clearance in mouse plasma. In kind it is ADME, organism-based.
Series [11] has as its target Cytochrome b5 (Homo sapiens) (UniProt P00167). Put plainly: Inhibition of cytochrome b5 at >10 uM.
Series [12] deals with Mus musculus. Briefly: Reduction in desaturation index in plasma of ob/ob mouse assessed as ratio of C18:0/C18:1n9 at 30 mg/kg bid. In kind it is functional, organism-based. Details: dose 30 mg/kg.
Series [13] concerns Mus musculus. Put plainly: Reduction in desaturation index in liver of ob/ob mouse assessed as ratio of C18:0/C18:1n9 at 30 mg/kg bid. Details: dose 30 mg/kg. The format is functional, organism-based.
The subject of series [14] is Mus musculus. Briefly: Reduction in desaturation index in plasma of ob/ob mouse assessed as ratio of C16:0/C16:1n7 at 30 mg/kg bid. The format is functional, organism-based. Further details: dose 30 mg/kg.
Series [15] deals with Mus musculus. Put plainly: Reduction in desaturation index in liver of ob/ob mouse assessed as ratio of C16:0/C16:1n7 at 30 mg/kg bid. In kind it is functional, organism-based. Details: dose 30 mg/kg.

Cytochrome b5 (Homo sapiens), sequence (P00167 whole entry): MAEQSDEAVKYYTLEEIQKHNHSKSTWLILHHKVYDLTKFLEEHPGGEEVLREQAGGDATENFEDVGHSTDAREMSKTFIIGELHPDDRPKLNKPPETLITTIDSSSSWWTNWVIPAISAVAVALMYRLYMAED

For the compound `CNC(=O)c1ccc(NC(=O)N2CCN(C(=O)c3ccccc3C(F)(F)F)CC2)cc1`, the half-inhibitory concentration (IC50) at Acyl-CoA desaturase 1 is greater than 10000 nM.

As to `CNC(=O)c1cccc(NC(=O)N2CCC(Oc3ccccc3OC)CC2)c1`, the results for the IC50 (on Acyl-CoA desaturase 1; in series [1]) were 81 nM and 1900 nM, respectively.

As to `CNC(=O)c1cccc(NC(=O)N2CCC(Oc3ccc(F)cc3Cl)CC2)c1`, the IC50 stood at 6 nM against Acyl-CoA desaturase 1 and 58 nM in series [1].

For the compound `CNC(=O)c1cccc(NC(=O)N2CCC(Oc3ccccc3)CC2)c1`, the IC50 against Acyl-CoA desaturase 1 worked out at 370 nM; in series [1] it was 4000 nM.

As to `CC(C)NC(=O)c1cccc(NC(=O)N2CCC(Oc3ccccc3Cl)CC2)c1`, the IC50 at Acyl-CoA desaturase 1 came out at 810 nM; in series [1], 7100 nM.

In the case of `CNC(=O)c1cccc(NC(=O)N2CCC(Oc3cc(F)ccc3Cl)CC2)c1`, the IC50 on Acyl-CoA desaturase 1 was less than 4 nM; in series [1] it was 18 nM.

As for `O=C(Nc1cccc(-c2ncc[nH]2)c1)N1CCC(Oc2ccccc2Cl)CC1`, the values for the IC50 (against Acyl-CoA desaturase 1; in [1]) were 10 nM and 360 nM, respectively.

Turning to `CNC(=O)c1cccc(NC(=O)N2CCC(Oc3c(F)cccc3Cl)CC2)c1`, the 50% inhibitory concentration (IC50) is 330 nM against Acyl-CoA desaturase 1 and 9700 nM in series [1].

On to `CC(C)(C)NC(=O)c1cccc(NC(=O)N2CCC(Oc3ccccc3Cl)CC2)c1`, for which the IC50 (against Acyl-CoA desaturase 1; in [1]) was greater than 10000 nM throughout.

For the compound `O=C(Nc1ccccc1)N1CCC(Oc2ccccc2Cl)CC1`, the values for the IC50 (on Acyl-CoA desaturase 1; in series [1]) were 590 nM and 7500 nM, respectively.

For `CNC(=O)c1cccc(NC(=O)N2CCC(Oc3ccccc3Cl)CC2)c1`, the outcome with Mus musculus [2], in the series on Mus musculus [3], in the series with Mus musculus [4] and with Mus musculus [5] was Active. Moreover, the IC50 was less than 4 nM at Acyl-CoA desaturase 1 and 37 nM in [1]. Also, in series [6], the bioavailability came to 92%. The Activity result in the series listed under Mus musculus [7] is “Dose-dependent effect”. The result in series [8] and in series [11] was inactive. Also, the Vd in series [9] is 0.4 L/kg. For the same compound, the clearance in [10] was 6.67 mL/min/kg.

On to `CNC(=O)c1cccc(NC(=O)N2CCC(Oc3cccc(Cl)c3)CC2)c1`, for which the figures for the IC50 (at Acyl-CoA desaturase 1; in series [1]) were 20 nM and 270 nM, respectively.

On to `NC(=O)c1cccc(NC(=O)N2CCC(Oc3ccccc3Cl)CC2)c1`, for which the IC50 was determined as 10 nM against Acyl-CoA desaturase 1 and 59 nM in series [1].

With `CNC(=O)c1cccc(NC(=O)N2CCC(Oc3ccccc3C)CC2)c1`, the IC50 against Acyl-CoA desaturase 1 worked out at 17 nM; in [1] it was 120 nM.

Regarding `Cc1noc(-c2cccc(NC(=O)N3CCC(Oc4ccccc4Cl)CC3)c2)n1`, the IC50 against Acyl-CoA desaturase 1 turned out to be 8 nM; in series [1], 110 nM.

For `CNC(=O)c1cccc(NC(=O)N2CCN(C(=O)c3ccccc3C(F)(F)F)CC2)c1`, half-maximal inhibition at Acyl-CoA desaturase 1 (IC50) required 700 nM.

Take `CNC(=O)c1cccc(NC(=O)N2CCC(Oc3ccccc3F)CC2)c1`: the results for the IC50 (against Acyl-CoA desaturase 1; in series [1]) were 98 nM and 680 nM, respectively. For the same compound, the outcome with Mus musculus [12], with Mus musculus [13], with Mus musculus [14] and in the series on Mus musculus [15] was Active.

For the compound `CNC(=O)c1cccc(NC(=O)N2CCC(Oc3ccccc3Br)CC2)c1`, the IC50 at Acyl-CoA desaturase 1 was less than 4 nM; in [1], 30 nM.

On to `CCNC(=O)c1cccc(NC(=O)N2CCC(Oc3ccccc3Cl)CC2)c1`, for which the IC50 against Acyl-CoA desaturase 1 came to 8 nM; in [1], 150 nM.

For the origin of these results see ChEMBL document CHEMBL1155886, “Discovery of piperidine-aryl urea-based stearoyl-CoA desaturase 1 inhibitors” (Bioorg Med Chem Lett, 2008).
